# Laboratory results from paper PMC7887271, “Fast acting allosteric phosphofructokinase inhibitors block trypanosome glycolysis and cure acute African trypanosomiasis in mice” (Nature Communications, 2021).
# Values joined by “and” are separate entries in the source; they are usually repeats but may differ in a detail not shown here. Equal entries are not always repeated. Where two headings read alike, the source gives them in different places.
# What was measured:
# Human hERG = Human hERG (Homo sapiens, UniProt Q12809); experiment: Human hERG inhibition
# Excerpt: Methods are described in Supplementary Methods 5 and 6. Enzyme assay results are means ± SD in multiple assays. ADME results are averages of n = 2 or 3 measurements in individual assays.
# [1] = Mouse brain tissue binding; format: in vitro ADME; conditions: read-out: Mouse brain tissue binding fu (%)
# [2] = Pharmacokinetic studies in mice (IV and PO); format: in vivo, female CD-1 mice; conditions: for AUC(0-inf): read-out: AUC (infinity)
# Procedure: PK parameters for the lead compounds were determined using three mice per data point (Supplementary Methods 6.1).
# Blood samples were collected from terminal cardiac puncture at 0.08 (IV only), 0.25, 0.5, 1 (PO only), 2, 4, 8 and 24 hour time points. The whole blood was centrifuged to obtain plasma. Brains were also collected following cardiac perfusion from both sets of animals at 2 hours. Analysis of the biological samples was carried out by the company Selcia. Plasma proteins were precipitated by addition of PBS (1 volume) followed by 3 volumes of acetonitrile containing internal standard (verapamil). Following filtration through a protein precipitation plate the eluent was dried under nitrogen and re-suspended in mobile phase prior to analysis. Individual brains were homogenised in PBS and diluted to 10% w/v and divided into aliquots consisting of brain homogenate (1 volume, 0.3 ml) and 3 volumes (0.9 ml) of acetonitrile containing internal standard. Samples were centrifuged and supernatants removed and taken through a protein precipitation plate alongside an appropriate standard. Eluents were dried under nitrogen and re-suspended in mobile phase prior to analysis. Eluents were analysed by LC-MS/MS using a Phenomenex Gemini NX column (C18,30 x 2.1 mm, 3 micron). Analysis of the data was carried out using PK solutions software.
# T. b. brucei GVR35-VSL2 = experiment: Mouse model of stage 1 and stage 2 HAT, bioluminescence imaging; format: in vivo, T. b. brucei in female CD-1 mice; conditions: treatment during stage 1 (day 7)
# Excerpt: An alternative mouse model for stage 1 (acute) and stage 2 (CNS-involved) HAT has been developed using a transgenic cell line derived from the pleiomorphic T. b. brucei GVR35 that expresses red-shifted firefly luciferase[17],[18]. […] T. b. brucei GVR35-infected mice present stage 1 disease by day 7 post infection with progression to stage 2 by day 21. By injecting the mouse with luciferin, the level of parasitaemia can be estimated in real time by monitoring the luminescence. Unlike monomorphic Lister 427 T. b. brucei, the pleiomorphic GVR35 T. b. brucei is controlled by a quorum-sensing mechanism resulting in the significant increase in survival time in mice and lower blood parasitaemia that occurs in waves. This extended survival time is also accompanied by parasite dissemination to multiple tissues and organs, including the skin, adipose tissue, lung and brain, with parasite loads increasing over time[17],[19].
# For the mouse model of stage 1 and stage 2 HAT T. b. brucei GVR35-VSL2 parasites (3 × 10^4) were injected into a single donor female CD-1 mouse intraperitoneally. Once infection was established, starting on day 7 for stage 1 studies and day 21 for stage 2 studies, mice were either left untreated (n = 3) or dosed by oral gavage with CTCB compound in Cremophor EL: EtOH: D-PBS (30:10:60 v/v; n = 6). Progression of T. b. brucei GVR35-VSL2 infection was monitored primarily by in vivo bioluminescence imaging of infected mice using an IVIS Spectrum (PerkinElmer). For stage 1 studies, imaging of infected mice was performed before treatment on day 7 post infection and on days following the treatment (days 8, 9 and 14). Imaging on groups of three mice was performed 12 min after intraperitoneal injection of 150 mg kg^−1 D-luciferin (Promega) in PBS. For stage 2 studies, mice were imaged prior to treatment on day 21, and subsequently on days 22 and 23. On day 23, 24 h after the final dose, mice were sacrificed by cervical dislocation and perfused with PBS containing 15 g L^−1 glucose to allow ex vivo imaging of whole brains (Supplementary Figs. 12 and 13).
# Female CD-1 (Charles River UK; 6-8 weeks old) mice were infected with 3 × 10^4 T. b. brucei GVR35-VSL2 bloodstream form parasites intraperitoneally. T. b. brucei GVR35-VSL2 expresses red-shifted luciferase and provides a better signal for imaging (13). Once infection was established, starting on day 7 for Stage 1 studies and day 21 for Stage 2 studies, mice were either left untreated (n=3) or dosed by oral gavage with CTCB compound in Cremophor EL: EtOH : D-PBS (30:10:60 v/v) (n = 6). Additional groups of mice (n=3) that received either a single intraperitoneal dose of diminazene aceturate (Sigma-Aldrich) at 40 mg/kg in sterile water or 0.1 ml melarsoprol gel (14) containing 3.6 mg melarsoprol, applied topically for 3 consecutive days, served as controls for Stage 1 and Stage 2 treatment studies, respectively.
# Progression of T. b. brucei GVR35-VSL2 infection was monitored primarily by in vivo bioluminescence imaging of infected mice using an IVIS Spectrum (PerkinElmer) as described previously (5). For stage 1 studies, imaging of infected mice was performed before treatment on day 7 post-infection and in days following the treatment (days 8, 9 and 14). Imaging on groups of three mice was performed 12 minutes after intraperitoneal injection of 150 mg/kg D-luciferin (Promega) in PBS. For stage 2 studies, mice were imaged prior to treatment on day 21 and subsequently on days 22 and 23. On day 23, 24 hours after the final dose, mice were sacrificed by cervical dislocation and perfused with phosphate-buffered saline containing 15 g.L^−1 glucose to allow ex vivo imaging of whole brains. To this end, 100 μl D-luciferin was administered onto the brain surface and imaging performed immediately thereafter.
# [3] = female, CD-1, plasma, mouse, PO 5 mg kg^−1
# Chain of Human hERG (Q12809 whole entry): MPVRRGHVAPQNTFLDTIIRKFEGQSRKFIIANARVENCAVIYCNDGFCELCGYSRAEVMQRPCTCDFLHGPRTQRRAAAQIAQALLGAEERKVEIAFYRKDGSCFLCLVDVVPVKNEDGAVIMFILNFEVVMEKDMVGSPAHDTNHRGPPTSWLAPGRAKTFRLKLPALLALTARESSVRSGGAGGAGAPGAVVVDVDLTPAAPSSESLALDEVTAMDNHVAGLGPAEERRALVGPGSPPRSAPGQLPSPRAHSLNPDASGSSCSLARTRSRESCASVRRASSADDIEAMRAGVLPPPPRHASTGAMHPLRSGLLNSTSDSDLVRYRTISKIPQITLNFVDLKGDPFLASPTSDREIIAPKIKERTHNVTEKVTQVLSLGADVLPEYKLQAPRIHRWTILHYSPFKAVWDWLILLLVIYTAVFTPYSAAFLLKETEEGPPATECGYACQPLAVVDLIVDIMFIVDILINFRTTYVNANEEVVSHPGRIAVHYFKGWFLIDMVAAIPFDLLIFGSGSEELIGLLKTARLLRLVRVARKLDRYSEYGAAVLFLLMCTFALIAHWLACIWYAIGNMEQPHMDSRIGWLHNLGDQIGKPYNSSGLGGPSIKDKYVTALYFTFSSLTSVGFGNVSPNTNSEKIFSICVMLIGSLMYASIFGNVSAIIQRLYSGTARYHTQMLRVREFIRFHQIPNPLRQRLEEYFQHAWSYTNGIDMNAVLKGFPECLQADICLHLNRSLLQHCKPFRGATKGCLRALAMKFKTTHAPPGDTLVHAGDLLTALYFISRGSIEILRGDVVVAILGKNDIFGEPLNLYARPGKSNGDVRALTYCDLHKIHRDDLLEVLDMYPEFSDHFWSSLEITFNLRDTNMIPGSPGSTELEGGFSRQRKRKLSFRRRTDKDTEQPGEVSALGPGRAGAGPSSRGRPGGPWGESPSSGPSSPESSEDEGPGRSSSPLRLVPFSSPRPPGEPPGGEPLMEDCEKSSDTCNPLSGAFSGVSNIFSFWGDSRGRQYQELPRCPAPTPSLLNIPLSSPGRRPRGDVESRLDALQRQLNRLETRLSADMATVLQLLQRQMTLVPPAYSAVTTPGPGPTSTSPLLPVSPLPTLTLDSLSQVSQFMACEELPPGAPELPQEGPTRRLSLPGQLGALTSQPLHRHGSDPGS
structure (smiles),measurement,setting,value
"CN(C)CCn1ccc2c(ccn2Cc2ccc(Cl)c(Cl)c2)c1=O [CTCB-405, 1-[(3,4-Dichlorophenyl)methyl]-5-[2-(dimethylamino)ethyl] pyrrolo[3,2-c]pyridin-4-one]",IC50,Human hERG,3.98 µM
same,fraction unbound,[1],0.008
same,"Plasma concentration, individual animal","[2]; 1 mg/kg IV bolus, mouse (female, CD-1), 0.08 h",0.415 µM and 0.386 µM and 140.6 ng/ml and 135.9 ng/ml
same,"Plasma concentration, individual animal","[2]; 1 mg/kg IV bolus, mouse (female, CD-1), 0.25 h",0.37 µM and 0.489 µM and 178.1 ng/ml and 108.2 ng/ml
same,"Plasma concentration, individual animal","[2]; 1 mg/kg IV bolus, mouse (female, CD-1), 0.5 h",0.118 µM and 0.159 µM and 57.9 ng/ml and 49.5 ng/ml
same,"Plasma concentration, individual animal","[2]; 1 mg/kg IV bolus, mouse (female, CD-1), 2 h",0.049 µM and 0.069 µM and 0.109 µM and 25.1 ng/ml and 39.7 ng/ml and 17.8 ng/ml
same,"Plasma concentration, individual animal","[2]; 1 mg/kg IV bolus, mouse (female, CD-1), 4 h",0.042 µM and 0.015 µM and 0.019 µM and 5.5 ng/ml and 6.9 ng/ml and 15.3 ng/ml
same,"Plasma concentration, individual animal","[2]; 1 mg/kg IV bolus, mouse (female, CD-1), 8 h",0.011 µM and 4.0 ng/ml
same,"Plasma concentration, individual animal","[2]; 5 mg/kg oral dose (PO), mouse (female, CD-1), 0.25 h",279.4 ng/ml and 164.7 ng/ml and 0.767 µM and 0.452 µM
same,"Plasma concentration, individual animal","[2]; 5 mg/kg oral dose (PO), mouse (female, CD-1), 0.5 h",77.6 ng/ml and 126.4 ng/ml and 0.213 µM and 0.347 µM
same,"Plasma concentration, individual animal","[2]; 5 mg/kg oral dose (PO), mouse (female, CD-1), 1 h",129.3 ng/ml and 229.9 ng/ml and 100.9 ng/ml and 0.355 µM and 0.631 µM and 0.277 µM
same,"Plasma concentration, individual animal","[2]; 5 mg/kg oral dose (PO), mouse (female, CD-1), 2 h",177.4 ng/ml and 144.3 ng/ml and 303.4 ng/ml and 0.487 µM and 0.396 µM and 0.833 µM
same,"Plasma concentration, individual animal","[2]; 5 mg/kg oral dose (PO), mouse (female, CD-1), 4 h",88.9 ng/ml and 83.8 ng/ml and 0.244 µM and 0.23 µM
same,"Plasma concentration, individual animal","[2]; 5 mg/kg oral dose (PO), mouse (female, CD-1), 8 h",9.1 ng/ml and 0.025 µM
same,concentration at 0.08 h,"[2]; female, CD-1, mouse, plasma, intravenous, 1 mg/kg, 1 mg/kg IV bolus, mouse (female, CD-1), 0.08 h, read-out: Plasma concentration, Mean",143 ng/mL and 391 nM
same,concentration at 0.08 h,"[2]; female, CD-1, mouse, plasma, intravenous, 1 mg/kg, 1 mg/kg IV bolus, mouse (female, CD-1), 0.08 h, read-out: Plasma concentration, individual animal",373 nM and 151 ng/mL
same,concentration at 0.25 h,"[2]; female, CD-1, mouse, plasma, intravenous, 1 mg/kg, 1 mg/kg IV bolus, mouse (female, CD-1), 0.25 h, read-out: Plasma concentration, Mean",140 ng/mL and 385 nM
same,concentration at 0.25 h,"[2]; female, CD-1, mouse, plasma, intravenous, 1 mg/kg, 1 mg/kg IV bolus, mouse (female, CD-1), 0.25 h, read-out: Plasma concentration, individual animal",297 nM and 135 ng/mL
same,concentration at 0.5 h,"[2]; female, CD-1, mouse, plasma, intravenous, 1 mg/kg, 1 mg/kg IV bolus, mouse (female, CD-1), 0.5 h, read-out: Plasma concentration, Mean",50.1 ng/mL and 138 nM
same,concentration at 0.5 h,"[2]; female, CD-1, mouse, plasma, intravenous, 1 mg/kg, 1 mg/kg IV bolus, mouse (female, CD-1), 0.5 h, read-out: Plasma concentration, individual animal",136 nM and 43 ng/mL
same,concentration at 2 h,"[2]; female, CD-1, mouse, plasma, intravenous, 1 mg/kg, 1 mg/kg IV bolus, mouse (female, CD-1), 2 h",27.6 ng/mL and 75.7 nM
same,concentration at 4 h,"[2]; female, CD-1, mouse, plasma, intravenous, 1 mg/kg, 1 mg/kg IV bolus, mouse (female, CD-1), 4 h, read-out: Plasma concentration, Mean",9.23 ng/mL and 25.3 nM
same,concentration at 8 h,"[2]; female, CD-1, mouse, plasma, intravenous, 1 mg/kg, 1 mg/kg IV bolus, mouse (female, CD-1), 8 h, read-out: Plasma concentration, Mean",3.28 ng/mL and 9 nM
same,concentration at 8 h,"[2]; female, CD-1, mouse, plasma, intravenous, 1 mg/kg, 1 mg/kg IV bolus, mouse (female, CD-1), 8 h, read-out: Plasma concentration, individual animal",7 nM and 2.5 ng/mL
same,concentration at 0.25 h,"[2]; female, CD-1, mouse, plasma, oral, 5 mg/kg, 5 mg/kg oral dose (PO), mouse (female, CD-1), 0.25 h, read-out: Plasma concentration, Mean",200 ng/mL and 548 nM
same,concentration at 0.25 h,"[2]; female, CD-1, mouse, plasma, oral, 5 mg/kg, 5 mg/kg oral dose (PO), mouse (female, CD-1), 0.25 h, read-out: Plasma concentration, individual animal",155 ng/mL and 426 nM
same,concentration at 0.5 h,"[2]; female, CD-1, mouse, plasma, oral, 5 mg/kg, 5 mg/kg oral dose (PO), mouse (female, CD-1), 0.5 h, read-out: Plasma concentration, Mean",103 ng/mL and 283 nM
same,concentration at 0.5 h,"[2]; female, CD-1, mouse, plasma, oral, 5 mg/kg, 5 mg/kg oral dose (PO), mouse (female, CD-1), 0.5 h, read-out: Plasma concentration, individual animal",105 ng/mL and 288 nM
same,concentration at 1 h,"[2]; female, CD-1, mouse, plasma, oral, 5 mg/kg, 5 mg/kg oral dose (PO), mouse (female, CD-1), 1 h",153 ng/mL and 421 nM
same,concentration at 2 h,"[2]; female, CD-1, mouse, plasma, oral, 5 mg/kg, 5 mg/kg oral dose (PO), mouse (female, CD-1), 2 h",208 ng/mL and 572 nM
same,concentration at 4 h,"[2]; female, CD-1, mouse, plasma, oral, 5 mg/kg, 5 mg/kg oral dose (PO), mouse (female, CD-1), 4 h, read-out: Plasma concentration, Mean",89 ng/mL and 244 nM
same,concentration at 4 h,"[2]; female, CD-1, mouse, plasma, oral, 5 mg/kg, 5 mg/kg oral dose (PO), mouse (female, CD-1), 4 h, read-out: Plasma concentration, individual animal",94.3 ng/mL and 259 nM
same,concentration at 8 h,"[2]; female, CD-1, mouse, plasma, oral, 5 mg/kg, 5 mg/kg oral dose (PO), mouse (female, CD-1), 8 h, read-out: Plasma concentration, Mean",8.2 ng/mL and 22.5 nM
same,concentration at 8 h,"[2]; female, CD-1, mouse, plasma, oral, 5 mg/kg, 5 mg/kg oral dose (PO), mouse (female, CD-1), 8 h, read-out: Plasma concentration, individual animal",7.3 ng/mL and 20 nM
same,AUC(0-inf),"[2]; female, CD-1, plasma, mouse, IV 1 mg kg^−1",260 ng·h/mL
same,clearance,"[2]; female, CD-1, plasma, mouse, IV 1 mg kg^−1, read-out: CL/kg (converted)",63.3 mL/min/kg
same,half-life,"[2]; female, CD-1, plasma, mouse, IV 1 mg kg^−1, read-out: Elimination t1/2 (converted)",2.7 h
same,Vd,"[2]; female, CD-1, plasma, mouse, IV 1 mg kg^−1, read-out: Vd (area)",12.3 L/kg
same,Cmax,[2]; [3],206 ng/mL
same,Tmax,[2]; [3],0.3 h
same,AUC(0-inf),[2]; [3],704 ng·h/mL
same,bioavailability,"[2]; female, CD-1, plasma, mouse, PO 5 mg kg^−1 vs IV 1 mg kg^−1, read-out: Bioavailability (F%)",54%
same,detection of parasites in blood delayed to,T. b. brucei GVR35-VSL2,14 day post infection
same,"effect on parasitaemia, stage 1 treatment",T. b. brucei GVR35-VSL2,reduced parasitaemia in the body and blood of mice
